Among the data in ChEMBL document CHEMBL4411276, “Chemistry-oriented synthesis (ChOS) and target deconvolution on neuroprotective effect of a novel scaffold, oxaza spiroquinone” (Eur J Med Chem, 2019) are IC50, viability and Activity values, retold here.

For one data set, the system named is BV-2. In words: Anti-inflammatory activity in mouse BV2 cells assessed as reduction in LPS-induced NO production pre-treated before LPS stimulation for 24 hrs by Griess reagent-based assay. The data set is classed as functional, cell-based.
Data set [1] in a line: Cytotoxicity against LPS-stimulated mouse BV2 cells assessed as cell survival after 24 hrs by MTT assay relative to control. The class given is cell-based, BV-2. Further details: concentration or dose not given beside the values. The settings on record: read-out: Survival.
Data set [2] in a line: Cytotoxicity against mouse BV2 cells assessed as cell survival after 24 hrs by MTT assay relative to control. The data set is classed as cell-based, BV-2. Further details: concentration or dose not given beside the values. The settings on record: read-out: Survival. In general terms: Formazan colour is commonly taken as a measure of viable cells.
Data set [3] has as its target Mitogen-activated protein kinase 8 (Homo sapiens) (UniProt P45983). Kind of data set: Inhibition of human JNK1 assessed as enzyme activity at 30 uM using ATF2 as substrate by [gamma-33P]-ATP assay relative to control. Further details: scale not given: the % may be the effect or the level left.
The target of data set [4] is Death-associated protein kinase 1 (Homo sapiens) (UniProt P53355). Kind of data set: Inhibition of human DAPK1 assessed as enzyme activity at 30 uM using KKLNRTLSFAEPG as substrate by [gamma-33P]-ATP assay relative to control. Further details: scale not given: the % may be the effect or the level left.
Sequence of Death-associated protein kinase 1 (Homo sapiens) (P53355 whole entry, looked up): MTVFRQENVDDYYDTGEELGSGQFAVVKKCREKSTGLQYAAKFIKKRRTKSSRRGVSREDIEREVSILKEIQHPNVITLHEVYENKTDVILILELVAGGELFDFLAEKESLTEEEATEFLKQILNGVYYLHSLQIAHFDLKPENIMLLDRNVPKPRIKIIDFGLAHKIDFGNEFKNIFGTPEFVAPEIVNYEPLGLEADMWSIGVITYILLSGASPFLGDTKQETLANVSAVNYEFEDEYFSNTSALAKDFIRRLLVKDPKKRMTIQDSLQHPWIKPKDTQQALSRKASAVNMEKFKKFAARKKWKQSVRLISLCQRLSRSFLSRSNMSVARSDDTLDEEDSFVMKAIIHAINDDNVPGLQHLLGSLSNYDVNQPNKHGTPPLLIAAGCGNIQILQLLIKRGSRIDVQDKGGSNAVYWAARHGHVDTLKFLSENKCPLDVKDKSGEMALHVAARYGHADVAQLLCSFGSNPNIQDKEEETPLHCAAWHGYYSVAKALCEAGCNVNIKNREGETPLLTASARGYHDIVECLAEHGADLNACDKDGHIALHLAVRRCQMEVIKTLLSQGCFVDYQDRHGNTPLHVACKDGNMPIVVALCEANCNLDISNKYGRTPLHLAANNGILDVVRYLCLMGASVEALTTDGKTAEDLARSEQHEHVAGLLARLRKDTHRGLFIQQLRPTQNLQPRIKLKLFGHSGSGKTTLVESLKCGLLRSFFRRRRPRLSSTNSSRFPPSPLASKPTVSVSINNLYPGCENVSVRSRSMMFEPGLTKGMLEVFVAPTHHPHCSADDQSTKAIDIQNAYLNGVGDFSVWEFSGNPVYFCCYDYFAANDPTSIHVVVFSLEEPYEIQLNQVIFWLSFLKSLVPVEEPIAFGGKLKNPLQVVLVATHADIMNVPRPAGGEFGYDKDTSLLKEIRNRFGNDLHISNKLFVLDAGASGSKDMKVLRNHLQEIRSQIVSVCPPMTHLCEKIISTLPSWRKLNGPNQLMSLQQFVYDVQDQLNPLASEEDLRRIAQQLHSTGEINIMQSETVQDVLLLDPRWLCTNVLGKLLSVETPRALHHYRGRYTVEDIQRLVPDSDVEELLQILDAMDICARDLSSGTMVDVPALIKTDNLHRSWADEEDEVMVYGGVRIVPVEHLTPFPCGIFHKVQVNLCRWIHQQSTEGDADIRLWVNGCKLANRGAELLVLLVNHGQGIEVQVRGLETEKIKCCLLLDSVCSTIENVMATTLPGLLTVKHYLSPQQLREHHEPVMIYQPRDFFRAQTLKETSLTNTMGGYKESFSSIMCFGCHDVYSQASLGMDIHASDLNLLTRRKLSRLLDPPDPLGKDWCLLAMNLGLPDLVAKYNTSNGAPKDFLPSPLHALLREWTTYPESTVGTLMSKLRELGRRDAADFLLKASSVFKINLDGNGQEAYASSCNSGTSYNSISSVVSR
Data set [5] concerns the target Protein kinase C alpha type (Homo sapiens) (UniProt P17252). In words: Inhibition of human PKCalpha assessed as enzyme activity at 30 uM using ERMRPRKRQGSVRRRV as substrate by [gamma-33P]-ATP assay relative to control. Further details: scale not given: the % may be the effect or the level left.
The target in data set [6] is Cyclin-dependent kinase 1/cyclin B1 (Homo sapiens) (UniProt P06493+P14635). Kind of data set: Inhibition of human CDK1/cyclinB assessed as enzyme activity at 30 uM using Histone H1 as substrate by [gamma-33P]-ATP assay relative to control. The data set is classed as protein-complex assay. Further details: scale not given: the % may be the effect or the level left.
Sequence of Cyclin-dependent kinase 1/cyclin B1 (Homo sapiens) (P06493 whole entry, looked up): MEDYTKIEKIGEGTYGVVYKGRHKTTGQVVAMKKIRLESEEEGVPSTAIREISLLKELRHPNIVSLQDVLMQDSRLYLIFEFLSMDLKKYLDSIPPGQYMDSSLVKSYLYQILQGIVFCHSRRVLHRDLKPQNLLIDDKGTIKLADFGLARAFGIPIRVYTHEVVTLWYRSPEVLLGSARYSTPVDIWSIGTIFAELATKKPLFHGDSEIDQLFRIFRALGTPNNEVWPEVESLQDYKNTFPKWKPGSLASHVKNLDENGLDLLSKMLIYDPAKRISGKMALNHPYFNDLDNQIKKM
Sequence of Cyclin-dependent kinase 1/cyclin B1 (Homo sapiens) (P14635 whole entry, looked up): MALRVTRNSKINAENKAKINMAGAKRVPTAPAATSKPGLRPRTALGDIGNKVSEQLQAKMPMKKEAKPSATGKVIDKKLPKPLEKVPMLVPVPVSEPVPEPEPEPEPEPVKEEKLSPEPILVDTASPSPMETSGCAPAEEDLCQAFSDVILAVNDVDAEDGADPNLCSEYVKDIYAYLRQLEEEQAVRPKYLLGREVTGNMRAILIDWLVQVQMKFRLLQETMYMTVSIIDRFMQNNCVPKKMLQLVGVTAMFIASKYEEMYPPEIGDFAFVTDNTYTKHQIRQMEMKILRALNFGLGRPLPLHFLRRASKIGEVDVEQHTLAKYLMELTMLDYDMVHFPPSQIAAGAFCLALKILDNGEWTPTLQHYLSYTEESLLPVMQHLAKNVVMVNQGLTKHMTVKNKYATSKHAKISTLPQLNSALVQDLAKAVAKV
Data set [7] has as its target Serine/threonine-protein kinase 24 (Homo sapiens) (UniProt Q9Y6E0). Kind of data set: Inhibition of human MST3 assessed as enzyme activity at 30 uM using MBP as substrate by [gamma-33P]-ATP assay relative to control. Further details: scale not given: the % may be the effect or the level left.
Data set [8] deals with T1, Serine/threonine-protein kinase tousled-like 1 (Homo sapiens) (UniProt Q9UKI8).
T1 sequence (whole entry): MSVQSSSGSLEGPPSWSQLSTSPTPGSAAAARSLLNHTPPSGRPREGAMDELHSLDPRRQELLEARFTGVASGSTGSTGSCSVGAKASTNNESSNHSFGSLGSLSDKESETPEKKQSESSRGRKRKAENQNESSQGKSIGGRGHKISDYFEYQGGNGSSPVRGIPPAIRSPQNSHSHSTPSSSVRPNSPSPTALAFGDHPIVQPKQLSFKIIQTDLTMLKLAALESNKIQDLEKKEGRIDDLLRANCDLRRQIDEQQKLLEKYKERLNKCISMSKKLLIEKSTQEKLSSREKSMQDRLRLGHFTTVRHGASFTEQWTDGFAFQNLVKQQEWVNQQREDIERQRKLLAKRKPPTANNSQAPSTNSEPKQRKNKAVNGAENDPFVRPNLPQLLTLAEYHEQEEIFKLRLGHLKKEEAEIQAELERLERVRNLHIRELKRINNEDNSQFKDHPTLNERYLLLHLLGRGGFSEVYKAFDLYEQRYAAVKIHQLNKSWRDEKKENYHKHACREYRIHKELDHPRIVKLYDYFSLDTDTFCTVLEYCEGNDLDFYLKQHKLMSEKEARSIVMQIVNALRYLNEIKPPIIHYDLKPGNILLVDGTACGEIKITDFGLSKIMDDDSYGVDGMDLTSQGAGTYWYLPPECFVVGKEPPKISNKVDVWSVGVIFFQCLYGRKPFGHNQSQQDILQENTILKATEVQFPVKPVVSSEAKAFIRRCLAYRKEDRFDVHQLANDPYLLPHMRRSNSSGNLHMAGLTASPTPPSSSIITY
In words: Inhibition of human TLK1 assessed as enzyme activity at 30 uM using Histone H3 as substrate by [gamma-33P]-ATP assay relative to control. Further details: scale not given: the % may be the effect or the level left.

The target in data set [9] is Mitogen-activated protein kinase 9 (Homo sapiens) (UniProt P45984). Kind of data set: Inhibition of human JNK2 assessed as enzyme activity at 30 uM using ATF2 as substrate by [gamma-33P]-ATP assay relative to control. Further details: scale not given: the % may be the effect or the level left.
Sequence of Mitogen-activated protein kinase 9 (Homo sapiens) (P45984 whole entry, looked up): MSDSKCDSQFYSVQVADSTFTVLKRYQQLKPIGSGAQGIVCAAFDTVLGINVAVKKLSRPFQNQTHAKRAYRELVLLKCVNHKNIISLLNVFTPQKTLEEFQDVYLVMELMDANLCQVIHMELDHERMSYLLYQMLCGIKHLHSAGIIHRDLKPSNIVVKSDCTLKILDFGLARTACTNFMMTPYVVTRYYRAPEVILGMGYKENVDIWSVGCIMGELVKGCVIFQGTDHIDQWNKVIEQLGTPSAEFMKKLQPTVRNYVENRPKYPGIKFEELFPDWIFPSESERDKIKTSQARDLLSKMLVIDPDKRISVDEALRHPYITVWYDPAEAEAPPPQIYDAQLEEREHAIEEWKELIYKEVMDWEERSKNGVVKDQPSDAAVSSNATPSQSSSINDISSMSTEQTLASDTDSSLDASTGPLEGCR
In data set [10] the target is CDK3/Cyclin E (Homo sapiens) (UniProt P24864+Q00526). In words: Inhibition of human CDK3/cyclin-E assessed as enzyme activity at 30 uM using histone H1 as substrate by [gamma-33P]-ATP assay relative to control. The class given is protein-complex assay. Further details: scale not given: the % may be the effect or the level left.
The target of data set [11] is Serine/threonine-protein kinase N2 (Homo sapiens) (UniProt Q16513). Kind of data set: Inhibition of human PKN2 assessed as enzyme activity at 30 uM using KKLNRTLSVA as substrate by [gamma-33P]-ATP assay relative to control. Further details: scale not given: the % may be the effect or the level left.
Data set [12] concerns the target Serine/threonine-protein kinase 25 (Homo sapiens) (UniProt O00506). In words: Inhibition of human STK25 assessed as enzyme activity at 30 uM using MBP as substrate by [gamma-33P]-ATP assay relative to control. Further details: scale not given: the % may be the effect or the level left.
For data set [13], the target named is T2, NUAK family SNF1-like kinase 1 (Homo sapiens) (UniProt O60285).
T2 sequence (whole entry): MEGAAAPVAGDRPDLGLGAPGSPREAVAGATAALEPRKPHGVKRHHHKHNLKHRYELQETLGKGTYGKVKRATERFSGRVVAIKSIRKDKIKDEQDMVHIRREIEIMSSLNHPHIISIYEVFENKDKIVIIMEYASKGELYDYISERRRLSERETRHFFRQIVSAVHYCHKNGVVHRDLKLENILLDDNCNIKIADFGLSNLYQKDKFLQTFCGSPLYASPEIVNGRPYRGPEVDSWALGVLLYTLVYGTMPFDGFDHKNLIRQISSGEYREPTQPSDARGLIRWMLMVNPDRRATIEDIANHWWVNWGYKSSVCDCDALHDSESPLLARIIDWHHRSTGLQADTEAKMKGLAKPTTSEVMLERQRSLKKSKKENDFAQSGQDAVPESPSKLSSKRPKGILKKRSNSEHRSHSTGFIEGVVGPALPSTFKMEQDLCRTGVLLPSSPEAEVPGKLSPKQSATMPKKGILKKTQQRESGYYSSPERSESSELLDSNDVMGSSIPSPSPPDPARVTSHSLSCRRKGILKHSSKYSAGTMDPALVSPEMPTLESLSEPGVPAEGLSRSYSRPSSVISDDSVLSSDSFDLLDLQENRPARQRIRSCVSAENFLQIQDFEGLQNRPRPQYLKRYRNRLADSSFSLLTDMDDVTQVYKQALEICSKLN
Kind of data set: Inhibition of human ARK5 assessed as enzyme activity at 30 uM using KKKVSRSGLYRSPSMPENLNRPR as substrate by [gamma-33P]-ATP assay relative to control. Further details: scale not given: the % may be the effect or the level left.

The target in data set [14] is Mitogen-activated protein kinase 10 (Homo sapiens) (UniProt P53779). Kind of data set: Inhibition of human JNK3 assessed as enzyme activity at 30 uM using ATF2 as substrate by [gamma-33P]-ATP assay relative to control. Further details: scale not given: the % may be the effect or the level left.
Sequence of Mitogen-activated protein kinase 10 (Homo sapiens) (P53779 whole entry): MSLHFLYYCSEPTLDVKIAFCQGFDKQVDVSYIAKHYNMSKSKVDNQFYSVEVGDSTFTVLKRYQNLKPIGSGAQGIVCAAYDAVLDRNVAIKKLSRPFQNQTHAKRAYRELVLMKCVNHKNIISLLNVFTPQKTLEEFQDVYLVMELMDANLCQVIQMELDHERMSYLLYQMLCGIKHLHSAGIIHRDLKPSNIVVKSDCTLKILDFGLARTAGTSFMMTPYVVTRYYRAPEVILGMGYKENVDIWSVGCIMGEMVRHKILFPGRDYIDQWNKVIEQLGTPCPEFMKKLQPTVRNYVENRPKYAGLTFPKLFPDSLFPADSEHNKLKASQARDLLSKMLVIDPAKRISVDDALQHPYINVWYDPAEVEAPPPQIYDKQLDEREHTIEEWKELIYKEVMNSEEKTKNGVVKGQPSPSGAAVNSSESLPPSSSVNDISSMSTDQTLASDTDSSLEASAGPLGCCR
The subject of data set [15] is Mus musculus. Kind of data set: Cognition enhancing effect in ICR mouse model of scopolamine-induced memory impairment assessed as spontaneous alteration at 10 mg/kg by Y-maze test (reference value: 45.14%). The class given is functional.
In data set [16] the test system is Mus musculus. Kind of data set: Effect on total entries in ICR mouse model of scopolamine-induced memory impairment at 5 mg/kg by Y-maze test. The data set is classed as ADME, organism-based. The settings on record: in vivo.

Structures are written as SMILES.

Sequence of Serine/threonine-protein kinase 24 (Homo sapiens) (Q9Y6E0 whole entry, looked up): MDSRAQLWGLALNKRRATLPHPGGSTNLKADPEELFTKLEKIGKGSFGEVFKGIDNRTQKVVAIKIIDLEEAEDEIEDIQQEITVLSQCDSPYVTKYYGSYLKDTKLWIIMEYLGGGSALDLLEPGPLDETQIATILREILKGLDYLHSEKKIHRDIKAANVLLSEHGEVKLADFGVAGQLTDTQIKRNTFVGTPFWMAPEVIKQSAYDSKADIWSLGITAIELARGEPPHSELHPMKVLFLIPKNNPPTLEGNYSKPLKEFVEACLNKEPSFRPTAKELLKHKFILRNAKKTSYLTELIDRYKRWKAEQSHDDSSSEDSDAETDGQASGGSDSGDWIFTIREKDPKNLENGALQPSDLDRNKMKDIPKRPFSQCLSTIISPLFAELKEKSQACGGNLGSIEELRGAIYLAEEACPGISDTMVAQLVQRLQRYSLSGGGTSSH
Sequence of Serine/threonine-protein kinase 25 (Homo sapiens) (O00506 whole entry, looked up): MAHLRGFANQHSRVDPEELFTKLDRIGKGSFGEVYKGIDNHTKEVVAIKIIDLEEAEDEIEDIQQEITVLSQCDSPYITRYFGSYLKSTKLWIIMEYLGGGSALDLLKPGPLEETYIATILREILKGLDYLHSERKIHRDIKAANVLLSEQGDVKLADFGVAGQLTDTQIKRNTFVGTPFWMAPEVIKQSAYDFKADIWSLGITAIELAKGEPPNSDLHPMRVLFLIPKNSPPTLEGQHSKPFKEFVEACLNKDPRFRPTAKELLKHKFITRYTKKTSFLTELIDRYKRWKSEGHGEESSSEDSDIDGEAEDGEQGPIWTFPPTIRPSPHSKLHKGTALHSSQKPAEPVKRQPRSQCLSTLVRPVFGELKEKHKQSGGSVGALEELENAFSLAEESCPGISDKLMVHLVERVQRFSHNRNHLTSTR
Sequence of Mitogen-activated protein kinase 8 (Homo sapiens) (P45983 whole entry): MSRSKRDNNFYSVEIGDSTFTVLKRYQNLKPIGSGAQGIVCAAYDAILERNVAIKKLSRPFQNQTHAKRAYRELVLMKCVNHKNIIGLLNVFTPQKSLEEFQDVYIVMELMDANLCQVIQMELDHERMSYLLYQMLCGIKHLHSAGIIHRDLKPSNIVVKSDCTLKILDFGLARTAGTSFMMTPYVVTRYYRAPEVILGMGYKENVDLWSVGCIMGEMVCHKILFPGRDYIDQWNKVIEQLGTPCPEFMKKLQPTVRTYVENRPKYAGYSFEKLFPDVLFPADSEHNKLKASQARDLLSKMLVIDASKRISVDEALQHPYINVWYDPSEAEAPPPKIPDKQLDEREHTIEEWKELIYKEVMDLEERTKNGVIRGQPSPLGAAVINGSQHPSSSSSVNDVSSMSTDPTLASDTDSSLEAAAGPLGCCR

As usually defined, the IC50 is the concentration at which inhibition is half-maximal. As to `O=C1C=CC2(C=C1)OCC(Cc1cc(C(F)(F)F)cc(C(F)(F)F)c1)C(=O)N2c1ccccc1` (configuration not stated), the concentration for half-maximal inhibition (IC50) with BV-2 worked out at 70 nM. For the same compound, the viability at 24 h in data set [1] was found to be 92.1%; in data set [2], 85.4%. Further, the Activity in data set [3] was in the range of 35.6 to 36%; in [4], 45.3 to 45.4%; in data set [5], 44.8 to 46.5%; in data set [6], 45.4 to 46.5%; in data set [7], 57.6 to 58.2%; in data set [8], 57.3 to 58.6%. In addition, the Activity in data set [9] was in the range of 57.8 to 58.8%; in data set [10], 58.5 to 60.2%; in [11], 62.2 to 64.8%; in [12], 66.9 to 67%; in data set [13], 70.7 to 70.8%; in data set [14] it was 70.6 to 73.4%. Besides, the Activity in the data set with Mus musculus [15] is listed as 59.62%; in the data set with Mus musculus [16] it was “Non-Toxic”.
